Positions of bridges follow the written chain, without caps; N, C: chain ends. Residues, ends and D or L forms follow the SMILES beside them.
How the values were obtained:
Abl kinase = Abl kinase (Homo sapiens, UniProt P00519); test: BacKin assay, inhibition of phosphorylation of abltide displayed on E. coli; assay type: biochemical; details: 32 μM peptide, Abl kinase 0.2 U/mL, 37 °C, 30 min
HeLa cells = system: HeLa cells
Method: Since BCR-ABL localizes predominantly in the cytoplasm, it is important to evaluate whether the designed peptides can be internalized into cells.
Human cervical cancer cells (HeLa) were seeded in 175-cm^2 tissue culture flasks (Falcon), in Dulbecco’s Modified Eagle’s Medium (DMEM) supplemented with 10% fetal bovine serum, 100 U/mL penicillin and […] streptomycin, until 80% confluent.
Cytotoxicity of the MTAbl peptides towards HeLa cells was evaluated before the cell internalization assay. The mammalian cell cytotoxicity assay was conducted using a method described earlier. HeLa cells were seeded the day before the assay in 96-well tissue culture-treated plates (2.5 × 10^3 cells/well). […] Peptide solutions were diluted 10-fold with serum-free medium and incubated with cells in triplicates for 2 h. […] Following incubation the peptide solutions were removed and aliquots of 10 μL of 0.02% (w/v) sterile resazurin (resazurin sodium salt, Sigma) were added to each well containing 100 μL of fresh medium. […] The absorbance of the plates was measured on a plate reader at 540 and 620 nm.

Serum stability assay = details: for remaining at 24 h, 30 μM: male, human, serum; for stability in human serum (in words; comparison to MCoTI-II at 24 h): 100% human serum, 37 °C, one-way ANOVA, three replicates
Method: All peptides were tested at a final concentration of 30 μM in 100% human serum. […] Reactions were stopped at the stipulated times and the serum proteins in each sample were denatured and precipitated, followed by centrifugation at 17,000 g for 10 min to separate the serum proteins from peptide samples. […] The elution time for each peptide was determined by the PBS control from 0 time point. The percentage of peptide remaining at each time point was calculated using the height of the serum-treated peptide peak from time 0 as 100% recovery.

[1] = 100% human male AB serum (Sigma); details: 37 °C, up to 24 h

Chain of Abl kinase (P00519 whole entry): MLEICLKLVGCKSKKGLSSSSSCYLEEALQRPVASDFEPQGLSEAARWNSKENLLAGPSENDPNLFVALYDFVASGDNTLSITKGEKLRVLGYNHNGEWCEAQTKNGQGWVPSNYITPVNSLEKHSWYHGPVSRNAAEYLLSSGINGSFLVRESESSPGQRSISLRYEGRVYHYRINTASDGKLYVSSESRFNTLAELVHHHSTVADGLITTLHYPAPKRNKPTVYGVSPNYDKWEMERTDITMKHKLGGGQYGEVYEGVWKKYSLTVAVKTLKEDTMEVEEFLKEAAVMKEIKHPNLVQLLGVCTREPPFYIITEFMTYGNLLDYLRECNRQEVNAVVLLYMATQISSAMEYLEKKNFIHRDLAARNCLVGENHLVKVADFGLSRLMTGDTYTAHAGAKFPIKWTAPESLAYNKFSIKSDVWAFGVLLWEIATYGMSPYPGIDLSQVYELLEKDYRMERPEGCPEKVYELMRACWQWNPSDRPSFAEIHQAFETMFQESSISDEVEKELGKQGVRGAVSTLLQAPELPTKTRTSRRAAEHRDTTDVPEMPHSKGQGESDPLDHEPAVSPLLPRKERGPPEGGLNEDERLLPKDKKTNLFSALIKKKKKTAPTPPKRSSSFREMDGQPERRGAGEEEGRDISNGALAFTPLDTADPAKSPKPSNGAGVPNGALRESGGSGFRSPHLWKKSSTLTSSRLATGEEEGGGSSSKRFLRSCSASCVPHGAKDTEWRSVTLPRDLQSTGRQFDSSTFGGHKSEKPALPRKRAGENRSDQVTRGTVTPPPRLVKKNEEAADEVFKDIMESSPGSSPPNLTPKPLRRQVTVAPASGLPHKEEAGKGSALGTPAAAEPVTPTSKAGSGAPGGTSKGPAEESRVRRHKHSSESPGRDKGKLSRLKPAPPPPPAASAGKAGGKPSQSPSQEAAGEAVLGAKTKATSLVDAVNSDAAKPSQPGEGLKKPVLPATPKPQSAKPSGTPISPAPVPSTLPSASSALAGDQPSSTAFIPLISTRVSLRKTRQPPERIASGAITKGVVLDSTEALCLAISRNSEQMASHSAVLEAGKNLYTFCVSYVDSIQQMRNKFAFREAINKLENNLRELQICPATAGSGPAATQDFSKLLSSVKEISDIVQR

Row | fragment found [1] | Compound | percentage of Abl kinase inhibition (Abl kinase) | concentration up to which no cytotoxicity towards HeLa cells (HeLa cells) [µM] | remaining at 24 h, 30 μM (Serum stability assay) [%] | stability in human serum (in words; comparison to MCoTI-II at 24 h) (Serum stability assay)
1 |  | CC[C@H](C)[C@@H]1NC(=O)[C@H](C)NC(=O)[C@H](CCC(=O)O)NC(=O)CNC(=O)[C@@H]2CSSC[C@@H]3NC(=O)[C@H](CC(=O)O)NC(=O)[C@H](CO)NC(=O)[C@H](CC(=O)O)NC(=O)[C@H](CCCNC(=N)N)NC(=O)[C@H](CCCNC(=N)N)NC(=O)[C@@H]4CSSC[C@H](NC(=O)[C@H]([C@@H](C)CC)NC(=O)[C@H](CSSC[C@H](NC(=O)[C@H](CCCNC(=N)N)NC(=O)[C@H](C)NC(=O)[C@H](Cc5ccccc5)NC(=O)[C@@H]5CCCN5C(=O)[C@H](C)NC(=O)[C@H](C)NC(=O)[C@H](Cc5ccc(O)cc5)NC1=O)C(=O)N1CCC[C@H]1C(=O)N[C@@H](CCCCN)C(=O)N[C@@H]([C@@H](C)CC)C(=O)N[C@@H](CC(C)C)C(=O)N[C@@H](CCCCN)C(=O)N[C@@H](CCCCN)C(=O)N4)NC(=O)[C@H](C)NC(=O)CNC(=O)[C@@H]1CCCN1C3=O)C(=O)N[C@@H](CCCNC(=N)N)C(=O)NCC(=O)N[C@@H](CC(N)=O)C(=O)NCC(=O)N[C@@H](Cc1ccc(O)cc1)C(=O)N2 [MTAbl06] (cyclo(AAPFARCPKILKKCRRDSDCPGACICRGNGYCGEAIY); disulfide 7-24, 14-26, 20-32) | ~ 90% | > 64 | > 75 | 
2 |  | CC[C@H](C)[C@@H]1NC(=O)[C@H](C)NC(=O)[C@H](CCC(=O)O)NC(=O)CNC(=O)[C@@H]2CSSC[C@@H]3NC(=O)[C@H](CC(=O)O)NC(=O)[C@H](CO)NC(=O)[C@H](CC(=O)O)NC(=O)[C@H](CCCNC(=N)N)NC(=O)[C@H](CCCNC(=N)N)NC(=O)[C@@H]4CSSC[C@H](NC(=O)[C@H]([C@@H](C)CC)NC(=O)[C@H](CSSC[C@H](NC(=O)[C@H](CCCNC(=N)N)NC(=O)[C@H](CCCNC(=N)N)NC(=O)[C@H](CCCNC(=N)N)NC(=O)[C@H](C)NC(=O)[C@H](Cc5ccccc5)NC(=O)[C@@H]5CCCN5C(=O)[C@H](C)NC(=O)[C@H](C)NC(=O)[C@H](Cc5ccc(O)cc5)NC1=O)C(=O)N1CCC[C@H]1C(=O)N[C@@H](CCCCN)C(=O)N[C@@H]([C@@H](C)CC)C(=O)N[C@@H](CC(C)C)C(=O)N[C@@H](CCCCN)C(=O)N[C@@H](CCCCN)C(=O)N4)NC(=O)[C@H](C)NC(=O)CNC(=O)[C@@H]1CCCN1C3=O)C(=O)N[C@@H](CCCNC(=N)N)C(=O)NCC(=O)N[C@@H](CC(N)=O)C(=O)NCC(=O)N[C@@H](Cc1ccc(O)cc1)C(=O)N2 [MTAbl07] (cyclo(AAPFARRRCPKILKKCRRDSDCPGACICRGNGYCGEAIY); disulfide 9-26, 16-28, 22-34) |  | > 64 | > 75 | as stable as MCoTI-II
3 |  | CC[C@H](C)[C@@H]1NC(=O)[C@H](C)NC(=O)[C@H](CCC(=O)O)NC(=O)[C@@H]2CSSC[C@@H]3NC(=O)[C@H](C)NC(=O)CNC(=O)[C@@H]4CCCN4C(=O)[C@@H]4CSSC[C@H](NC(=O)[C@H](Cc5ccc(O)cc5)NC(=O)CNC(=O)[C@H](CC(N)=O)NC(=O)CNC(=O)[C@H](CCCNC(=N)N)NC(=O)[C@H](CSSC[C@H](NC(=O)[C@H](CCCCN)NC(=O)[C@@H]5CCCN5C(=O)[C@H](C)NC(=O)[C@H](C)NC(=O)[C@H](Cc5ccc(O)cc5)NC1=O)C(=O)N[C@@H](CCCNC(=N)N)C(=O)N[C@@H](CCCNC(=N)N)C(=O)N[C@@H](CC(=O)O)C(=O)N[C@@H](CO)C(=O)N[C@@H](CC(=O)O)C(=O)N4)NC(=O)[C@H]([C@@H](C)CC)NC3=O)C(=O)NCC(=O)N[C@@H](CO)C(=O)NCC(=O)N[C@@H](CO)C(=O)N[C@@H](CC(=O)O)C(=O)NCC(=O)NCC(=O)N[C@@H](C(C)C)C(=O)N2 [MTAbl09] (cyclo(AAPKCRRDSDCPGACICRGNGYCGSGSDGGVCEAIY); disulfide 5-17, 11-23, 15-32) |  | > 64 | > 75 | statistically more stable than MCoTI-II
4 |  | CC[C@H](C)[C@@H]1NC(=O)[C@H](C)NC(=O)[C@H](CCC(=O)O)NC(=O)CNC(=O)[C@@H]2CSSC[C@@H]3NC(=O)[C@H](CC(=O)O)NC(=O)[C@H](CO)NC(=O)[C@H](CC(=O)O)NC(=O)[C@H](CCCNC(=N)N)NC(=O)[C@H](CCCNC(=N)N)NC(=O)[C@@H]4CSSC[C@H](NC(=O)[C@H]([C@@H](C)CC)NC(=O)[C@H](CSSC[C@H](NC(=O)[C@H](CCCNC(=N)N)NC(=O)[C@H](C)NC(=O)[C@H](Cc5ccccc5)NC(=O)[C@@H]5CCCN5C(=O)[C@H](C)NC(=O)[C@H](C)NC(=O)[C@H](Cc5ccc(O)cc5)NC1=O)C(=O)N[C@@H](CCC(=O)O)C(=O)N[C@@H](C)C(=O)N[C@@H]([C@@H](C)CC)C(=O)N[C@@H](Cc1ccc(O)cc1)C(=O)N[C@@H](C)C(=O)N[C@@H](C)C(=O)N1CCC[C@H]1C(=O)N[C@@H](CCCCN)C(=O)N4)NC(=O)[C@H](C)NC(=O)CNC(=O)[C@@H]1CCCN1C3=O)C(=O)N[C@@H](CCCNC(=N)N)C(=O)NCC(=O)N[C@@H](CC(N)=O)C(=O)NCC(=O)N[C@@H](Cc1ccc(O)cc1)C(=O)N2 [MTAbl13] (cyclo(AAPFARCEAIYAAPKCRRDSDCPGACICRGNGYCGEAIY); disulfide 7-26, 16-28, 22-34) |  | > 64 | > 75 | statistically more stable than MCoTI-II
5 | MTAbl06 (i.e. dephosphorylated MTAbl12) | CPKILKKCRRDSDCPGACICRGNGYCGEAIY*AAPFAR |  |  |  | 

Reference: PMC4532999 (Scientific Reports, 2015)
